Measurements: PubChem BioAssay AID220 (DTP/NCI, 2004)
Several values for one entry are separate records, joined by “and”; a condition that tells them apart may be missing. Identical values can stand only once. Inconclusive results are not listed.

Tested on: CD8F1 mice, subcutaneous mammary adenocarcinoma, T/C%
Test: NCI In Vivo Anticancer Drug Screen. Data for tumor model Mammary Adenocarcinoma CD8F1 (subcutaneous) in CD8F1
Conditions: higher = larger tumour
Method in brief: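 Ratio of treated to vehicle-control outcome, based on either survival or tumor size, in mice bearing transplantable tumors given the test compound.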

[1] = endpoint: median tumor weight (est.), dose: 25.0 mg/kg/injection, schedule: Q07DX005 (ip), vehicle: suspension in saline
[2] = endpoint: median tumor weight (est.), dose: 50.0 mg/kg/injection, schedule: Q07DX005 (ip), vehicle: suspension in saline
[3] = endpoint: median tumor weight (est.), dose: 100.0 mg/kg/injection, schedule: Q07DX005 (ip), vehicle: suspension in saline

`CCC(C)Nc1ccc(N)cc1` (stereo not drawn) was tested, and the T/C (endpoint: median tumor weight (est.), dose: 0.18 mg/kg/injection, schedule: Q07DX005 (ip), vehicle: Klucel (hydroxypropylcellulose) (HPC)) was 90 % of control, the T/C (endpoint: median tumor weight (est.), dose: 0.37 mg/kg/injection, schedule: Q07DX005 (ip), vehicle: Klucel (hydroxypropylcellulose) (HPC)) was 92 % of control and the T/C (endpoint: median tumor weight (est.), dose: 0.75 mg/kg/injection, schedule: Q07DX005 (ip), vehicle: Klucel (hydroxypropylcellulose) (HPC)) was 86 % of control. For the same compound, the T/C (endpoint: median tumor weight (est.), dose: 1.5 mg/kg/injection, schedule: Q07DX005 (ip), vehicle: Klucel (hydroxypropylcellulose) (HPC)) was 107 % of control, the T/C (endpoint: median tumor weight change, dose: 0.2 mg/kg/injection, schedule: Q01DX001 (ip), vehicle: Klucel (hydroxypropylcellulose) (HPC)) was 123 % of control and the T/C (endpoint: median tumor weight change, dose: 0.37 mg/kg/injection, schedule: Q01DX001 (ip), vehicle: Klucel (hydroxypropylcellulose) (HPC)) was 93 % of control. For the same compound, the T/C (endpoint: median tumor weight change, dose: 0.75 mg/kg/injection, schedule: Q01DX001 (ip), vehicle: Klucel (hydroxypropylcellulose) (HPC)) was 89 % of control, the T/C (endpoint: median tumor weight change, dose: 1.5 mg/kg/injection, schedule: Q01DX001 (ip), vehicle: Klucel (hydroxypropylcellulose) (HPC)) was 101 % of control and the T/C (endpoint: median tumor weight change, dose: 3.0 mg/kg/injection, schedule: Q01DX001 (ip), vehicle: Klucel (hydroxypropylcellulose) (HPC)) was 119 % of control.

In the case of `Oc1ccccc1C=NCCC[N-]CCCN=Cc1ccccc1O.[Co]`, the T/C (endpoint: median tumor weight (est.), dose: 12.5 mg/kg/injection, schedule: Q07DX005 (ip), vehicle: suspension in saline) is reported as 162 % of control, the T/C [1] is reported as 223 % of control and the T/C [2] is reported as 180 % of control. For the same compound, the T/C [3] was 97 % of control.

With `CC(=Nc1ccccc1)C1=C(O)C(Cc2ccccc2)NC1=O` (stereo not drawn) the T/C (endpoint: median tumor weight (est.), dose: 12.5 mg/kg/injection, schedule: Q07DX005 (ip), vehicle: saline with Tween-80) was 218 % of control and 100 % of control, the T/C (endpoint: median tumor weight (est.), dose: 50.0 mg/kg/injection, schedule: Q07DX005 (ip), vehicle: saline with Tween-80) was 89 % of control and the T/C (endpoint: median tumor weight (est.), dose: 200.0 mg/kg/injection, schedule: Q07DX005 (ip), vehicle: saline with Tween-80) was 211 % of control and 85 % of control. The T/C (endpoint: median tumor weight (est.), dose: 400.0 mg/kg/injection, schedule: Q07DX005 (ip), vehicle: saline with Tween-80) was 39 % of control and 62 % of control.

`Nc1nc2nc[nH]c2c(=O)[nH]1` was tested, and the T/C [1] was 73 % of control, the T/C [2] was 73 % of control and the T/C [3] was 69 % of control. For the same compound, the T/C (endpoint: median tumor weight (est.), dose: 200.0 mg/kg/injection, schedule: Q07DX005 (ip), vehicle: suspension in saline) was 73 % of control.

In the case of `C[C@@H]1C[C@@H]([C@H](O)CC2CC(=O)NC(=O)C2)C(=O)[C@@H](C)C1`, the T/C (endpoint: median tumor weight change, dose: 62.5 mg/kg/injection, schedule: Q01DX001 (ip), vehicle: suspension in saline) is reported as 57 % of control, the T/C (endpoint: median tumor weight change, dose: 125.0 mg/kg/injection, schedule: Q01DX001 (ip), vehicle: suspension in saline) is reported as 72 % of control and the T/C (endpoint: median tumor weight change, dose: 250.0 mg/kg/injection, schedule: Q01DX001 (ip), vehicle: suspension in saline) is reported as 57 % of control.

For `C/C=C(\C)c1cc(=O)c2c(C)cc3c(c2o1)C(=O)c1c(O)c(C2CC(C)(N(C)C)C(O)C(C)O2)cc(C2CC(N(C)C)C(O)C(C)O2)c1C3=O` (stereo not drawn), the T/C (endpoint: median tumor weight change, dose: 0.16 mg/kg/injection, schedule: Q01DX001 (ip), vehicle: saline) was 78 % of control, the T/C (endpoint: median tumor weight change, dose: 0.31 mg/kg/injection, schedule: Q01DX001 (ip), vehicle: saline) was 51 % of control and the T/C (endpoint: median tumor weight change, dose: 0.62 mg/kg/injection, schedule: Q01DX001 (ip), vehicle: saline) was 52 % of control. For the same compound, the T/C (endpoint: median tumor weight change, dose: 2.5 mg/kg/injection, schedule: Q01DX001 (ip), vehicle: suspension in saline) was 61 % of control, the T/C (endpoint: median tumor weight change, dose: 5.0 mg/kg/injection, schedule: Q01DX001 (ip), vehicle: suspension in saline) was 42 % of control and the T/C (endpoint: median tumor weight change, dose: 10.0 mg/kg/injection, schedule: Q01DX001 (ip), vehicle: saline) was -9 % of control.

`CCN1/C(=C/C=C/C=C/c2sc3ccccc3[n+]2CC)Sc2ccccc21` was tested, and the T/C (endpoint: median tumor weight (est.), dose: 0.37 mg/kg/injection, schedule: Q07DX006 (ip), vehicle: saline) was 77 % of control and the T/C (endpoint: median tumor weight (est.), dose: 0.75 mg/kg/injection, schedule: Q07DX006 (ip), vehicle: saline) was 233 % of control.

With `NC(CCl)=NCC12CC3CC(CC(C3)C1)C2` the T/C (endpoint: median tumor weight (est.), dose: 3.12 mg/kg/injection, schedule: Q07DX005 (ip), vehicle: Klucel (hydroxypropylcellulose) (HPC)) was 114 % of control, the T/C (endpoint: median tumor weight (est.), dose: 12.5 mg/kg/injection, schedule: Q07DX005 (ip), vehicle: Klucel (hydroxypropylcellulose) (HPC)) was 104 % of control and 119 % of control and the T/C (endpoint: median tumor weight (est.), dose: 25.0 mg/kg/injection, schedule: Q07DX005 (ip), vehicle: Klucel (hydroxypropylcellulose) (HPC)) was 90 % of control. For the same compound, the T/C (endpoint: median tumor weight (est.), dose: 50.0 mg/kg/injection, schedule: Q07DX005 (ip), vehicle: Klucel (hydroxypropylcellulose) (HPC)) was 39 % of control and 51 % of control.

With `NC(=S)Nc1cccc2ccccc12` the T/C (endpoint: median tumor weight change, dose: 31.25 mg/kg/injection, schedule: Q01DX001 (ip), vehicle: saline with Tween-80) was 58 % of control and the T/C (endpoint: median tumor weight change, dose: 62.5 mg/kg/injection, schedule: Q01DX001 (ip), vehicle: saline with Tween-80) was 80 % of control.
